Source: patent US8212016B2, “NPC1L1 orthologues” (Schering Corporation, priority 2006, dated 2012)
Like-named read-outs stand apart in the source and are kept apart here.

Legend:
[1] = intraduodenal delivery, first pass metabolism in the intestine; cited from earlier work
cholesterol absorption [2] = assay: In vivo potency of ezetimibe (ED50); conditions: Primates, Monkey
mouse NPC1L1 = molecular target: T1, mouse NPC1L1 (Mus musculus, UniProt Q6T3U4, N476K); assay: Fluorescence NPC1L1 binding assay, HEK-293 cells, fluorescent compound 2 as ligand
T1 construct: expressed in transfected cells
Description: (§1) Cell Culture and Membrane Preparation. Each plasmid pCR3.1 harboring NPC1L1 was prepared using standard molecular biology protocols. Stable cell lines expressing human, rhesus monkey, mouse, rat, hamster, canine or rabbit NPC1L1 were generated using Lipofectamine 2000 transfection reagent in HEK-293 cells according to the manufacturer's protocol. Cells were maintained in DMEM supplemented with 10% FBS, 100 U/ml pen/strep, and 500 μg/ml geneticin at 37° C., 5% CO2. All cell culture reagents were obtained from Invitrogen Life Technologies, (Carlsbad, Calif.). Cell membranes were prepared by lysing cells in 5 mM HEPES with protease inhibitors (Complete™ Protease Inhibitor Cocktail Tablets; Roche Diagnostics Corp., Indianapolis Ind.) for 15 min at 4° C. A membrane pellet was obtained by centrifuging the cell lysates at 12,000×g for 25 min. The membranes were resuspended in 5 mM HEPES with protease inhibitors and triturated with a 21G needle.
(§2) Fluorescence. Cells were plated into 384-well black/clear plates (BD Biosciences, Bedford Mass.) for binding experiments the following day. The media was aspirated. […] Media (20 μl) containing the indicated concentration of compound was then added to the wells. […] The binding reaction was allowed to proceed for 4 hours at 37° C. Subsequently the media was aspirated and the cells washed once with PBS.
In an effort to show binding to mouse NPC1L1, several related ezetimibe analogs were examined as possible alternatives to fluorescently-labeled (BODIPY) ezetimibe glucuronide (compound 1) in the binding assay. Compound 2, which is a fluorescently labeled synthetic precursor for fluorescently-labeled (BODIPY) ezetimibe glucuronide (compound 1; Burnett et al., Bioorganic and Medicinal Chemistry Letters 12:315-318 (2002)), was identified as a viable option for detection of mouse NPC1L1 binding. Compound 2 contains a methyl ester substitution for the carboxylic acid on the glucuronide portion of the molecule (compound structures shown in FIG. 4A).

cholesterol absorption [3] = assay: In vivo potency of ezetimibe (ED50); conditions: Mesocricetus auratus, Hamster
[4] = system: plasma and liver cholesterol; assay: Percent cholesterol lowering in plasma and liver; assay type: in vivo; conditions: hamster
canine NPC1L1 = canine NPC1L1 (Canis lupus familiaris, UniProt A0MJA4); assay: Fluorescence NPC1L1 binding assay, HEK-293 cells, BODIPY-labeled compound 1
Description: as §1, §2

rat NPC1L1 = molecular target: T2, rat NPC1L1 (Rattus norvegicus, UniProt Q6T3U3, A349V/E317P/G318E/K324N/L297S); assay: as above; conditions: Rat NPC1L1, competition with compound 1; read-out: Ki
T2 construct: expressed in transfected cells
Description: as §1, §2

human NPC1L1 = molecular target: T3, human NPC1L1 (Homo sapiens, UniProt Q9UHC9, T1073A); assay: as above; conditions: Human NPC1L1, competition with compound 1; read-out: Ki
T3 construct: expressed in transfected cells
T3 sequence (Q9UHC9 22-1332 isoform Q9UHC9-2 T1046A): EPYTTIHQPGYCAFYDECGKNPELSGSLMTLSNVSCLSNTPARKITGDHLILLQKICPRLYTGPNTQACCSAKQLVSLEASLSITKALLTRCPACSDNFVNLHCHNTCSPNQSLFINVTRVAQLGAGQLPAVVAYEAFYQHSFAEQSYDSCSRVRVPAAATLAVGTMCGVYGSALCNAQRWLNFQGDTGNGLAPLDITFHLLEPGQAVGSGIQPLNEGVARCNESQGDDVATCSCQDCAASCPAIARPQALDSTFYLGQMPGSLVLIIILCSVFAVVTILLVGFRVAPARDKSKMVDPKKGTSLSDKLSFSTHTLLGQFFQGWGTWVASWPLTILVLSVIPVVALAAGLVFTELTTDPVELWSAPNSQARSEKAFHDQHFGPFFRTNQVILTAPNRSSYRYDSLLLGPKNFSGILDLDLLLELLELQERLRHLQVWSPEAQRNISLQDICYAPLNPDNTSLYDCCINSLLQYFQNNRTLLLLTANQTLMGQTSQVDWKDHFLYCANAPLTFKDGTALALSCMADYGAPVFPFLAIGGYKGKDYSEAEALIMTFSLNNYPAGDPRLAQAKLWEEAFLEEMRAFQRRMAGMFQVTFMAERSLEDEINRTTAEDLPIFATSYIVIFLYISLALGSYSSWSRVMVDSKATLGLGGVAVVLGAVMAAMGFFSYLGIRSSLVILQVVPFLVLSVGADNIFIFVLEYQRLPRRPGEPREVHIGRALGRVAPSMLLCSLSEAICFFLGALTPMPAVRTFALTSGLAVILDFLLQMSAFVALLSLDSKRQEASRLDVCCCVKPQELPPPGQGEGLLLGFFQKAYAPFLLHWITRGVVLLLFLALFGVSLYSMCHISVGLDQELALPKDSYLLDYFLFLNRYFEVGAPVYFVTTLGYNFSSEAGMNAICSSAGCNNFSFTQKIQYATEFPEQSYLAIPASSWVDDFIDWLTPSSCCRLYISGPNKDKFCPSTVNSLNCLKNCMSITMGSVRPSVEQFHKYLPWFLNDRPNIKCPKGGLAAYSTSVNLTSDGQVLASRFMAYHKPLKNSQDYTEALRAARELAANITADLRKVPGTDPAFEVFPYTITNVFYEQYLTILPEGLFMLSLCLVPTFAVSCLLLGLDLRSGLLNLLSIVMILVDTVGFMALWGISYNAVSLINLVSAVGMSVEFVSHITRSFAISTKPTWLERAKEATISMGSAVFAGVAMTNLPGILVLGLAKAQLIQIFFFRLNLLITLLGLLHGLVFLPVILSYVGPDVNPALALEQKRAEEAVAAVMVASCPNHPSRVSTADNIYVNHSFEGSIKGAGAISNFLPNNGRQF
Description: as §1, §2

rabbit NPC1L1 = rabbit NPC1L1 (Oryctolagus cuniculus, UniProt A0MJA7); assay: as above
Description: as §1, §2

hamster NPC1L1 = hamster NPC1L1 (Mesocricetus auratus, UniProt A0MJA8); assay: as above
Description: as §1, §2

cholesterol absorption [5] = assay: In vivo potency of ezetimibe (ED50); conditions: Canis lupus familiaris, Canine
cholesterol absorption [6] = assay: In vivo potency of ezetimibe (ED50); conditions: Mouse
[7] = system: ^14C-cholesterol absorption; assay: Acute cholesterol absorption assay; assay type: in vivo; conditions: rat, intraduodenal; read-out: rat ED50, inhibition of cholesterol absorption
Description: Acute cholesterol absorption assay. ^14C-cholesterol absorption was determined acutely in rats using conditions previously described (Van Heek et al., J. Pharmacol. Exp. Ther. 283: 157-163 (1997)). Compounds were dissolved in rat bile and delivered (1.0 ml) intraduodenally by bolus injection via an intestinal catheter, followed by 1.0 ml saline rinse (0.9%). Following a 30 min incubation, a cholesterol emulsion containing 3 mg cholesterol and 2 μCi ^14C-cholesterol (3 ml) was delivered to each rat as a bolus via intestinal catheter, followed by 1 ml saline rinse. Animals were sacrificed 90 min later and ^14C-cholesterol levels in plasma, liver, intestinal contents, and intestinal wall were determined.

monkey NPC1L1 = monkey NPC1L1 (Macaca mulatta, UniProt A0MJA5); assay: Fluorescence NPC1L1 binding assay, HEK-293 cells, BODIPY-labeled compound 1; design: species or system rhesus monkey; conditions: Monkey NPC1L1, competition with compound 1; read-out: Ki
Description: as §1, §2

cholesterol absorption [8] = assay: In vivo potency of ezetimibe (ED50); conditions: Rat
[9] = following oral administration; cited from earlier work

## O=C1[C@H](CC[C@H](O)c2ccc(F)cc2)[C@@H](c2ccc(O)cc2)N1c1ccc(F)cc1 [compound 3, ezetimibe]
[1]
  fraction of compound in portal plasma that is the glucuronide compound 4: > 95%
Cholesterol absorption [2]
  ED50: 0.0005 mg/kg
Mouse NPC1L1; Mouse NPC1L1, competition with compound 2, read-out: Ki
  Ki: 5.4 µM
Mouse NPC1L1; Table 3, Mouse, read-out: Ki Mouse NPC1L1
  Ki: 9 µM
Cholesterol absorption [3]
  ED50: 0.04 mg/kg
[4]; liver
  cholesterol lowering Liver: 96%
[4]; plasma
  cholesterol lowering Plasma: 26%
Canine NPC1L1; Canine NPC1L1, competition with compound 1, read-out: Ki
  Ki: 0.77 µM
Canine NPC1L1; Table 3, Dog, read-out: Ki Dog NPC1L1
  Ki: 0.77 µM
Rat NPC1L1
  Ki: 0.97 µM
Human NPC1L1
  Ki: 2.24 µM
Rabbit NPC1L1; Rabbit NPC1L1, competition with compound 1, read-out: Ki
  Ki: 2.12 µM
Rabbit NPC1L1; Table 3, Rabbit, read-out: Ki Rabbit NPC1L1
  Ki: 2.1 µM
Hamster NPC1L1; Hamster NPC1L1, competition with compound 1, read-out: Ki
  Ki: 1.53 µM
Hamster NPC1L1; Table 3, Hamster, read-out: Ki Hamster NPC1L1
  Ki: 1.53 µM
Cholesterol absorption [5]
  ED50: 0.007 mg/kg
Cholesterol absorption [6]
  ED50: 0.7 mg/kg
[7]
  ED50: 0.0016 mg/kg
Monkey NPC1L1
  Ki: 0.9 µM
Cholesterol absorption [8]
  ED50: 0.03 mg/kg
[9]
  fraction of ezetimibe glucuronidated: 90%
